Assay results as given in article PMC5362750, “Discovery of Potent, Selective, and Orally Bioavailable Small-Molecule Modulators of the Mediator Complex-Associated Kinases CDK8 and CDK19” (Journal of Medicinal Chemistry, 2016).
Like-named read-outs stand apart in the source and are kept apart here.

What was measured:
[1] = molecular target: T1, beta 3 (h) (Homo sapiens, UniProt P13945); assay: CEREP binding assay; conditions: antagonist radioligand, read-out: % Inhibition of Control Specific Binding
T1 construct: purchased Millipore (KinaseProfiler) kinase panel

[2] = molecular target: T2, H3 (h) (Homo sapiens, UniProt Q9Y5N1); assay: CEREP binding assay; conditions: agonist radioligand, read-out: % Inhibition of Control Specific Binding
T2 construct: purchased Millipore (KinaseProfiler) kinase panel

[3] = molecular target: T3, CysLT1 (LTD4) (h) (Homo sapiens, UniProt Q9Y271); assay: CEREP binding assay; conditions: agonist radioligand, read-out: % Inhibition of Control Specific Binding
T3 construct: purchased Millipore (KinaseProfiler) kinase panel
T3 sequence (Q9Y271 whole entry): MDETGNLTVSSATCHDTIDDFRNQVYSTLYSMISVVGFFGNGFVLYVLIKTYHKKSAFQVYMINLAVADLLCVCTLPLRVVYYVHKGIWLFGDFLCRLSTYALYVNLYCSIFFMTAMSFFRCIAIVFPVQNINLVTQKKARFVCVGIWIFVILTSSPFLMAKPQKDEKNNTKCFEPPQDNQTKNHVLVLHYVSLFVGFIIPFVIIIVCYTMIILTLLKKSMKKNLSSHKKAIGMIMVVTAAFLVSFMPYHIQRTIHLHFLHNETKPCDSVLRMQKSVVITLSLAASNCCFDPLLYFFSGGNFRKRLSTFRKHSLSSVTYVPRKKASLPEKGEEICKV

[4] = molecular target: sst1 (h) (Homo sapiens, UniProt P30872); assay: CEREP binding assay; conditions: agonist radioligand, read-out: % Inhibition of Control Specific Binding
sst1 (h), sequence (P30872 whole entry): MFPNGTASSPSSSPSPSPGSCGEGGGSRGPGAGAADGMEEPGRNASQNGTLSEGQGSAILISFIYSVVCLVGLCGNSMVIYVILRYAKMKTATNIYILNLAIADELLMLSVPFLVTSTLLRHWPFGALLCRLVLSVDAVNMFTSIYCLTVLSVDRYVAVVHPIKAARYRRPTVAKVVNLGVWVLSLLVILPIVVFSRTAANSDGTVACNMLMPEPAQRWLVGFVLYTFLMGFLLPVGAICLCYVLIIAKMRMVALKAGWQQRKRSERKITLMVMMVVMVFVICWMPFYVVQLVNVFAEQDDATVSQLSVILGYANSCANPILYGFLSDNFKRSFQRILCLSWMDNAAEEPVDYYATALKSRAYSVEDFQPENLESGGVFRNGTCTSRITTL

[5] = molecular target: T4, CKIT (Homo sapiens, UniProt P10721); assay: Kinase panel (Millipore); type: biochemical; conditions: 1 µM, ATP at Km
T4 construct: purchased Millipore (KinaseProfiler) kinase panel

[6] = molecular target: ARG (Homo sapiens, UniProt P42684); assay: Kinase panel (Millipore); type: biochemical; conditions: 1 µM, ATP at Km
ARG, sequence (P42684 whole entry): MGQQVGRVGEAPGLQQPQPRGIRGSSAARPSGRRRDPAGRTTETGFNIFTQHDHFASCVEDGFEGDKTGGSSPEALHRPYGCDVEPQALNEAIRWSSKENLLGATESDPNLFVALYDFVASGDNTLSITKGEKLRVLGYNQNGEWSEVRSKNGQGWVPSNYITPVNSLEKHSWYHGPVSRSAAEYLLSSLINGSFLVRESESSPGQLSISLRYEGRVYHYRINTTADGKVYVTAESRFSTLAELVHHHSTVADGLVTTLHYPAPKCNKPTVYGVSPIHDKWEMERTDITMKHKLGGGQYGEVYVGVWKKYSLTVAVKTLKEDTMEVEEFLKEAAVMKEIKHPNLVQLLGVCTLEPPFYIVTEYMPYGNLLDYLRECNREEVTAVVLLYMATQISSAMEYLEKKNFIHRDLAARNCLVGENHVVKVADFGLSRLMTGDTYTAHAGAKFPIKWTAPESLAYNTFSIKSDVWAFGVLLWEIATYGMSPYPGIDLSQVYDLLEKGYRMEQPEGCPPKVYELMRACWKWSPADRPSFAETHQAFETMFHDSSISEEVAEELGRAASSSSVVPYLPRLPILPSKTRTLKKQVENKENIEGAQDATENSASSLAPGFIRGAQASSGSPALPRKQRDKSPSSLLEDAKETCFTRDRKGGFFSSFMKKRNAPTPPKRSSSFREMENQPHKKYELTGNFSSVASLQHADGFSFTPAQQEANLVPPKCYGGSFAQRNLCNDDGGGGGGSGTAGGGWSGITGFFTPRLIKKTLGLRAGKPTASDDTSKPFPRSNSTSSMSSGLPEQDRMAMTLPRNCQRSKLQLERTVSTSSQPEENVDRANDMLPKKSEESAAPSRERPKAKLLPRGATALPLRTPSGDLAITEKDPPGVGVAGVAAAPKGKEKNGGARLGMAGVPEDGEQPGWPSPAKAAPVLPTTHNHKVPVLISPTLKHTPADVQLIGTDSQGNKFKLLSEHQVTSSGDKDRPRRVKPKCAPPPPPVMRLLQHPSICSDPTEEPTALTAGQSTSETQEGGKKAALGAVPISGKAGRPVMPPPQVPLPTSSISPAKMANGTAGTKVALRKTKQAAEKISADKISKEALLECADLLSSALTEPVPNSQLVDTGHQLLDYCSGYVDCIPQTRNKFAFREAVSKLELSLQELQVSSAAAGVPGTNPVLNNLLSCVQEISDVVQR

[7] = molecular target: T5, EPHA7 (Homo sapiens, UniProt Q15375); assay: Kinase panel (Millipore); type: biochemical; conditions: 1 µM, ATP at Km
T5 construct: purchased Millipore (KinaseProfiler) kinase panel

[8] = molecular target: AURKA (Homo sapiens, UniProt O14965); assay: Kinase panel (Millipore); type: biochemical; conditions: 1 µM, ATP at Km
[9] = molecular target: MARK1 (Homo sapiens, UniProt Q9P0L2); assay: Kinase panel (Millipore); type: biochemical; conditions: 1 µM, ATP at Km
MARK1, sequence (Q9P0L2 whole entry): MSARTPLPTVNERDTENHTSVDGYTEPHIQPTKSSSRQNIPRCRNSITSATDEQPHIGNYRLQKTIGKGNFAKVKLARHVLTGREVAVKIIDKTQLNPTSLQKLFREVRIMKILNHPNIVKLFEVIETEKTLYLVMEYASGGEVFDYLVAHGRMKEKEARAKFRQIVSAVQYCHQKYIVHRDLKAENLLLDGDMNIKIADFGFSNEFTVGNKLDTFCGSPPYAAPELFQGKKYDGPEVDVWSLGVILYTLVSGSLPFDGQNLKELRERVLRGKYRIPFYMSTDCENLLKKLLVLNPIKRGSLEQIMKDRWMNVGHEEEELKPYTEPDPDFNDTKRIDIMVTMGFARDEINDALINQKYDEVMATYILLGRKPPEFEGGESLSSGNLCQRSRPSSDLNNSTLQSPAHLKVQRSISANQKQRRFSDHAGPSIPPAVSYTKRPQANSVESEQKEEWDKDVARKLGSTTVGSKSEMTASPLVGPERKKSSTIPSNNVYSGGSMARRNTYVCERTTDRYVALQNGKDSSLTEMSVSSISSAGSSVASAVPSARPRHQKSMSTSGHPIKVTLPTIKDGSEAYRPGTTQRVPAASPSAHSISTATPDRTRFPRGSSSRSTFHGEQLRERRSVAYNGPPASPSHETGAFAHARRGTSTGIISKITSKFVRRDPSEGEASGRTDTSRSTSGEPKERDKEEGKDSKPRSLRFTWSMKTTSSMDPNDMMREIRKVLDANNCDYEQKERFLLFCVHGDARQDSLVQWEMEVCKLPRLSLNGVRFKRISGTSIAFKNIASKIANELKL

[10] = molecular target: FGFR2 (Homo sapiens, UniProt P21802); assay: Kinase panel (Millipore); type: biochemical; conditions: 1 µM, ATP at Km
[11] = molecular target: T6, FLT1 (Homo sapiens, UniProt P17948); assay: Kinase panel (Millipore); type: biochemical; conditions: 1 µM, ATP at Km
T6 construct: purchased Millipore (KinaseProfiler) kinase panel

[12] = molecular target: T7, FLT4 (Homo sapiens, UniProt P35916); assay: Kinase panel (Millipore); type: biochemical; conditions: 1 µM, ATP at Km
T7 construct: purchased Millipore (KinaseProfiler) kinase panel

[13] = molecular target: FYN (Homo sapiens, UniProt P06241); assay: Kinase panel (Millipore); type: biochemical; conditions: 1 µM, ATP at Km
[14] = test system: CK1(Y); assay: Kinase panel (Millipore); type: biochemical; conditions: 1 µM, ATP at Km
[15] = molecular target: T8, DAPK1 (Homo sapiens, UniProt P53355); assay: Kinase panel (Millipore); type: biochemical; conditions: 1 µM, ATP at Km
T8 construct: purchased Millipore (KinaseProfiler) kinase panel

[16] = molecular target: T9, NEK3 (Homo sapiens, UniProt P51956); assay: Kinase panel (Millipore); type: biochemical; conditions: 1 µM, ATP at Km
T9 construct: purchased Millipore (KinaseProfiler) kinase panel

[17] = molecular target: T10, IRR (Homo sapiens, UniProt P14616); assay: Kinase panel (Millipore); type: biochemical; conditions: 1 µM, ATP at Km
T10 construct: purchased Millipore (KinaseProfiler) kinase panel

[18] = molecular target: PAK5 (Homo sapiens, UniProt Q9P286); assay: Kinase panel (Millipore); type: biochemical; conditions: 1 µM, ATP at Km
[19] = molecular target: JNK2ALPHA2 (Homo sapiens, UniProt P45984); assay: Kinase panel (Millipore); type: biochemical; conditions: 1 µM, ATP at Km
[20] = molecular target: T11, PDGFRBETA (Homo sapiens, UniProt P09619); assay: Kinase panel (Millipore); type: biochemical; conditions: 1 µM, ATP at Km
T11 construct: purchased Millipore (KinaseProfiler) kinase panel

[21] = molecular target: T12, SGK (Homo sapiens, UniProt O00141); assay: Kinase panel (Millipore); type: biochemical; conditions: 1 µM, ATP at Km
T12 construct: purchased Millipore (KinaseProfiler) kinase panel

[22] = molecular target: T13, PKCEPSILON (Homo sapiens, UniProt Q02156); assay: Kinase panel (Millipore); type: biochemical; conditions: 1 µM, ATP at Km
T13 construct: purchased Millipore (KinaseProfiler) kinase panel

[23] = molecular target: PKCGAMMA (Homo sapiens, UniProt P05129); assay: Kinase panel (Millipore); type: biochemical; conditions: 1 µM, ATP at Km
[24] = molecular target: YES (Homo sapiens, UniProt P07947); assay: Kinase panel (Millipore); type: biochemical; conditions: 1 µM, ATP at Km
YES, sequence (P07947 whole entry): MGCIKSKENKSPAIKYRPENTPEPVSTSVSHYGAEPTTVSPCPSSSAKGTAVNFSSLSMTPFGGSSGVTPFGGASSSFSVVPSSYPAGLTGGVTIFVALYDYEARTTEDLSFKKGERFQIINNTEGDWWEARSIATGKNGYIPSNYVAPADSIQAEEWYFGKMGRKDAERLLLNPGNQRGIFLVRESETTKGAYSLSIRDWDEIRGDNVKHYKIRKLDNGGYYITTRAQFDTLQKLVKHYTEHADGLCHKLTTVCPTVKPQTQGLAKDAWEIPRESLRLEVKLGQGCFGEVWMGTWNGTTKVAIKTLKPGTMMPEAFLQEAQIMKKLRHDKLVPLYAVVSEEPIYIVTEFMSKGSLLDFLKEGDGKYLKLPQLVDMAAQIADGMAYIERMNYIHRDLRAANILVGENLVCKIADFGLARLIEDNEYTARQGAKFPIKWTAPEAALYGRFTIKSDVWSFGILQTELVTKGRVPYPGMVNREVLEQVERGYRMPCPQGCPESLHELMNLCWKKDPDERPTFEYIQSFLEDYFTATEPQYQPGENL

[25] = molecular target: T14, PKD2 (Homo sapiens, UniProt Q9BZL6); assay: Kinase panel (Millipore); type: biochemical; conditions: 1 µM, ATP at Km
T14 construct: purchased Millipore (KinaseProfiler) kinase panel

[26] = molecular target: PHKGAMMA2 (Homo sapiens, UniProt P15735); assay: Kinase panel (Millipore); type: biochemical; conditions: 1 µM, ATP at Km
PHKGAMMA2, sequence (P15735 whole entry): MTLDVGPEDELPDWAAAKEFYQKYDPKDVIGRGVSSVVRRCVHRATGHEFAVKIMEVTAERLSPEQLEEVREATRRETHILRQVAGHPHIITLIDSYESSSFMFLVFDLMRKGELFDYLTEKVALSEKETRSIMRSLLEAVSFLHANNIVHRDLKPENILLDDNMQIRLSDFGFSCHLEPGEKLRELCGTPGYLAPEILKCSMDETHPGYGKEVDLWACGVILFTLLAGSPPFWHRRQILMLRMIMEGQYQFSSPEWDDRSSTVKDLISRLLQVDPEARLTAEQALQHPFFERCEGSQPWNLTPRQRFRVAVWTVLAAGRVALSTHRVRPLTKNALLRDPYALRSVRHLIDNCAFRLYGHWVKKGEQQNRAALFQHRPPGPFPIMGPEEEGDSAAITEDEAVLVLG

[27] = female, NMRI, mouse, in vivo
[28] = test system: Ca2+ channel (L, dihydropyridine site); conditions: 10 µM, antagonist radioligand
[29] = molecular target: CDK3/CYCLINE (Homo sapiens, UniProt Q00526); conditions: 1 µM, ATP at Km
[30] = molecular target: CK2ALPHA2 (Homo sapiens, UniProt P19784); conditions: 1 µM, ATP at Km
CK2ALPHA2, sequence (P19784 whole entry): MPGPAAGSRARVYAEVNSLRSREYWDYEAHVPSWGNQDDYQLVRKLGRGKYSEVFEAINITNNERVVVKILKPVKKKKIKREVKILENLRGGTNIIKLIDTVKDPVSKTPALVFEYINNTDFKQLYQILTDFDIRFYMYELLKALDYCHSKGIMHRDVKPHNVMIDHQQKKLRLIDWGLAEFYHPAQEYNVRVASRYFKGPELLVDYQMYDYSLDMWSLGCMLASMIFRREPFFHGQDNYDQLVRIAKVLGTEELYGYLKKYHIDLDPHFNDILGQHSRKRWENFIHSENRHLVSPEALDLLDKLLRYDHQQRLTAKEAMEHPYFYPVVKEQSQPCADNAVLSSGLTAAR

[31] = molecular target: CHK2(I157T) (Homo sapiens, UniProt O96017, I157T); conditions: 1 µM, ATP at Km
CHK2(I157T), sequence (O96017 5-543 I157T limits assumed): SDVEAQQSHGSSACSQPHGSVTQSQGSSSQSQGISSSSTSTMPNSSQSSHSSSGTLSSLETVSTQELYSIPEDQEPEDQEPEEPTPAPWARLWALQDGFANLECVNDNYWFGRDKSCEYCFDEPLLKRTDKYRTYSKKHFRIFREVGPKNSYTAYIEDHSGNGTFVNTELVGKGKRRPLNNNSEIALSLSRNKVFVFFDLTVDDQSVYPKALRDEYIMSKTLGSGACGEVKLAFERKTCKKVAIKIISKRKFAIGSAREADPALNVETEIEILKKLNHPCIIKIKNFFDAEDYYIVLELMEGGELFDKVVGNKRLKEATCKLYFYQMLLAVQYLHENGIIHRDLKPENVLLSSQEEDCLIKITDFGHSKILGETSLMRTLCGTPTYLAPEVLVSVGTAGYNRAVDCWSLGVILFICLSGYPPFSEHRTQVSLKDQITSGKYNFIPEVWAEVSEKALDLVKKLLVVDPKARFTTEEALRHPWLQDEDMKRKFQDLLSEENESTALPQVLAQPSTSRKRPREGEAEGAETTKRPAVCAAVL

[32] = molecular target: SRC(T341M) (Homo sapiens, UniProt P12931, T341M); conditions: 1 µM, ATP at Km
[33] = molecular target: RET(V804M) (Homo sapiens, UniProt P07949, V804M); conditions: 1 µM, ATP at Km
RET(V804M), sequence (P07949 658-1114 V804M limits assumed): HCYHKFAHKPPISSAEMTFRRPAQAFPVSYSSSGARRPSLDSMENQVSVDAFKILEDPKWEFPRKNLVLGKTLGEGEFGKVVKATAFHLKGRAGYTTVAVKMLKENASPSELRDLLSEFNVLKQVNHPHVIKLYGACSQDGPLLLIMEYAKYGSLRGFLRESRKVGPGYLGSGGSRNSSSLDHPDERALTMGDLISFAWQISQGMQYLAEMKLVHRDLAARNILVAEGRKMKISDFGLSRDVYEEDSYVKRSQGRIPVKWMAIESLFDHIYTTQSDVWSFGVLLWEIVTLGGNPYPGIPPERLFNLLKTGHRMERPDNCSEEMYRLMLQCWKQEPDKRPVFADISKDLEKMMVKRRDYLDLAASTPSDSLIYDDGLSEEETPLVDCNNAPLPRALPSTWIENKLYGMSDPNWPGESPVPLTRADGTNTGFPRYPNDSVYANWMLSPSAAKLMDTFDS

[34] = molecular target: cMET (D1246N) (Homo sapiens, UniProt P08581, D1228N); conditions: 1 µM, ATP at Km
[35] = molecular target: cMET (Y1248H) (Homo sapiens, UniProt P08581, Y1230H); conditions: 1 µM, ATP at Km
[36] = in vivo; conditions: female, dog, 0.2 mg/kg
[37] = molecular target: 5-HT2C (h) (Homo sapiens, UniProt P28335); assay: biochemical; conditions: read-out: % Inhibition of Control Specific Binding

Cn1ncc2cc(-c3cnc(N)c(Cl)c3N3CCC4(CCNC4=O)CC3)ccc21 [Compound 109, 8-(2-Amino-3-chloro-5-(1-methyl-1H-indazol-5-yl)pyridin-4-yl)-2,8-diazaspiro[4.5]decan-1-one]
inhibition at 10 µM [1]: -16%
inhibition at 10 µM [2]: 3%
inhibition at 10 µM [3]: 12%
inhibition at 10 µM [4]: -4%
% effect [5]: -5%
% effect [6]: 5%
% effect [7]: 13%
% effect [8]: -16%
% effect [9]: 17%
% effect [10]: 4%
% effect [11]: -8%
% effect [12]: -38%
% effect [13]: 23%
% effect [14]: -1%
% effect [15]: -8%
% effect [16]: -11%
% effect [17]: 5%
% effect [18]: -11%
% effect [19]: -5%
% effect [20]: -9%
% effect [21]: 0%
% effect [22]: -21%
% effect [23]: -6%
% effect [24]: -2%
% effect [25]: -1%
% effect [26]: 11%
LBF [27]: 10%
Cl (human): ∼0.36 L/h/kg
F (human): ∼70%
Vd (human): ∼1.4 L/kg
clearance prediction, allometry with correction by fu and BrW (human): 5.72 mL/min/kg
clearance prediction, allometry with correction by fu and MLP (human): 8.52 mL/min/kg
clearance prediction, iviv from hepatocytes (human): 3.58 mL/min/kg
volume prediction, range of allometry methods (human): 1.3 to 1.5 L/kg
t1/2 (human prediction): ∼2.7 h
% Inhibition of Control Specific Binding [28]: -16%
% effect [29]: 6%
% effect [30]: -13%
% effect [31]: -5%
% effect [32]: -8%
% effect [33]: 6%
% effect [34]: -2%
% effect [35]: -5%
Vd [36]: 1.4 L/kg
clearance ([36]; iv): 17.8 mL/min/kg
inhibition at 10 µM [37]: 6%
